Source: patent US20220160723A1, “PHARMACOLOGICAL MITIGATION OF LATE-STAGE TOXEMIA” (priority 2019, published 2022)
Entries after “also recorded” stand apart in the source; their conditions may differ. Like-named read-outs stand apart in the source and are kept apart here.

Legend:
CFL1 = assay: Western blot of total and phosphorylated CFL1 (Serine 3); format: cell-based, human; conditions: HBMEC
Procedure: FIGS. 4A-4I show ET induced IGF-1R, MEK and Rac1 signaling activate (dephosphorylate) the actin depolymerizing protein coflin (CFL1). […] ET induced a significant decrease in phosphorylated CFL1. (see FIG. 4B). FIG. 4B show levels of phosphorylated CFL1 relative to total CFL1 quantified from 2 independent experiments. p values indicate standard deviation. […] Total and phosphorylated CFL1 (Serine 3) levels were determined by western blot. […] (see FIG. 4D). FIG. 4D show levels of phosphorylated CFL1 relative to total CFL1 in whole cell lysates from HBMEC treated with ET in the presence or absence of IGF-1R inhibitor AG1024 and quantified from 2 independent experiments. […] Total and phosphorylated CFL1 (Serine 3) levels were determined by western blot. […] Total and phosphorylated CFL1 (Serine 3) levels were determined by western blot. […] (see FIG. 4G). FIG. 4G show levels of phosphorylated CFL1 relative to total CFL1 in whole cell lysates from HBMEC treated with ET in the presence or absence of the Rac1 inhibitor NSC23766 and quantified from 2 independent experiments. p values indicate standard deviation. […] Activation (dephosphorylation) of SSH1 in ET-treated and control cells was assessed by monitoring the levels of SSHI phosphorylated at Serine 978 relative to total SSHI in whole cell lysates by western blot. SSHI phosphorylation was reduced relative to untreated control cells at 240 min after ET treatment. […] Total and phosphorylated CFL1 (Serine 3) levels were determined by western blot.

Rac1 = assay: Rac1-GTP pull-down with PAK-Beads and western blot; format: cell-based, human; conditions: HBMEC, ET 250 ng/ml
Procedure: FIGS. 2A-2E show ET induced actin rearrangement is dependent on Rac1 activation. […] Whole cell lysates were incubated with PAK-Beads, which specifically bind to GTP-bound Rac1. Bead bound Rac1-GTP and total Rac1 levels in cell lysate were determined by western blot with anti-Rac1 antibody. ET induced significant increase in Rac1-GTP (i.e. active Rac1) levels (see FIG. 2B). […] Cells were fixed and stained with cell mask green to visualize cytoplasm. Cell area was quantified from 8 wells for each treatment («-number of cells) using automated image analysis software. […] MRMEC were grown to confluence in transwell inserts, and treated with ET (250 ng/ml) for 24h, in the presence or absence of Rac1 inhibitor NSC23766 (50 μM). Changes in monolayer permeability were assessed by assaying the diffusion of Evans blue dye from apical to basal chamber of transwell inserts. […] Data represent mean changes in monolayer permeability from 2 independent experiments. p value indicates standard deviation.
FIGS. 3A-3H show ET-mediated Rac1 activation and actin rearrangement is dependent on an early induction of IGF-1R, PI3K and MEK signaling. […] Activation of IGF-1R in ET˜ireated and control cells was assessed by monitoring the levels of IGF-1R phosphorylated at Tyrosine 1135 and 1136 relative to total IGF-1R in whole cell lysates by western blot. ET induced a rapid (within 10 minutes), but transient activation of IGF-1R. […] Cells were fixed and stained with CellMask green to visualize cytoplasm. Cell area was quantified from 8 wells for each treatment (n-number of cells) using automated image analysis software. […] Whole cell lysates were incubated with PAK-Beads, which specifically bind to GTP-bound Rac1 . Bead bound Rac1-GTP and total Rac1 levels in cell lysate were determined by western blot with anti-Rac 1 antibody. […] Total and phosphorylated […] (Thr 308 and Ser 473), as well as those of ERK (Thr 202 and Tyr 204) was determined by western blot. ET induced a rapid (within 10-20 minutes) phosphorylation of AKT and ERK. […] Changes in monolayer to permeability were assessed by assaying the diffusion of Evans blue dye from apical to basal chamber of transwell. […] Data represent mean changes in monolayer permeability from 2 independent experiments. p value indicates standard deviation. […] Whole cell lysates were incubated with PAK-Beads, which specifically bind to GTP-hound RacL Bead bound Rac1-GTP and total Rac1 levels in cell lysate were determined by western blot with anti-Rac1 antibody.

[1] = system: Human Brain Microvascular Endothelial cells (HBMEC); format: cell-based; conditions: for ET induced cortical actin rearrangement: HBMEC, 4 h; for ET-mediated actin remodeling / rearrangement: cultured endothelial cells (HBMEC), summary statement
[2] = system: Human Brain Microvascular Endothelial cells (HBMEC); assay: Medium throughput quantification of whole cell area (CellMask green); format: cell-based; conditions: ET 250 ng/ml, 4 h, 8 wells per treatment (FIG. 2D, 3C)
HBMEC monolayer = assay: Transwell monolayer permeability (Evans blue dye diffusion); format: cell-based, human; conditions: for ET induced disruption of monolayer integrity: HBMEC in transwell inserts, ET 250 ng/ml, 24 h, inhibitor 50 μM (FIG. 2E, 3G)
[3] = system: ET-induced footpad swelling (edema); assay: Mouse footpad swelling (edema) assay after ET injection; format: in vivo, mice; conditions: for protection against ET-induced footpad swelling (edema): in vivo mouse model, pre-treated mice, summary statement; for footpad swelling (edema) following ET injection: mice, 0.15 μg ET/paw (FIG. 5)
[4] = ET 250 ng/ml, 4 h (FIG. 4C, 4E, 4I)
[5] = ET 250 ng/ml, phalloidin (FIG. 3B, 3F)
[6] = cultured HBMEC model, summary statement

Structure (SMILES) | ET induced CFL1 activation (dephosphorylation) (CFL1; [4]) | ET induced Rac1 activation (Rac1-GTP) (Rac1; 4 h (FIG. 3D)) | ET induced Rac1 activation (Rac1-GTP) (Rac1; 4 h (FIG. 3H)) | ET induced cortical actin rearrangement [1, 5] | ET-mediated actin remodeling / rearrangement [1] | ET induced cell area reduction [2] | ET-mediated cell-cell barrier disruption (HBMEC monolayer; [6]) | protection against ET-induced footpad swelling (edema) [3] | footpad swelling (edema) following ET injection ([3]; pre-treatment 10 mg/kg) | ET induced disruption of monolayer integrity (HBMEC monolayer) | footpad swelling (edema) following ET injection ([3]; pre-treatment 33 mg/kg) | ET-mediated cell-cell barrier disruption (HBMEC monolayer) | footpad swelling (edema) following ET injection ([3]; pre-treatment 75 mg/kg) | ET induced CFL1 activation (dephosphorylation) (CFL1; ET 50, 100 and 250 ng/ml, 4 h (FIG. 4F)) | ET induced cortical actin rearrangement ([1]; ET 250 and 500 ng/ml, Alexa 488 phalloidin (FIG. 2C)) | ET-mediated actin remodeling / rearrangement ([1]; trihydrochloride) | protection against ET-induced footpad swelling (edema) ([3]; trihydrochloride)
CC(C)(C)c1cc(C=C(C#N)C#N)cc(Br)c1O [AG1024, 2-[(3-bromo-5˜iert-butyl-4-hydroxyphenyl)methylidene]propanedinitile] | significantly inhibited | completely rescued | significantly inhibited | almost completely inhibited | strongly inhibit; also recorded: almost completely rescue | completely .rescued | almost completely rescue | near complete protection; also recorded: almost complete protection | consistently block |  |  |  |  |  |  |  | 
O=C(NC[C@H](O)CO)c1ccncc1Nc1ccc(I)cc1F [AS703026] | significantly inhibited |  | significantly inhibited | significantly reduced | strongly inhibit; also recorded: almost completely rescue |  | almost completely rescue | near complete protection; also recorded: almost complete protection |  | significantly reduced | consistently block |  |  |  |  |  | 
CC(C)(C)c1cc(C(=O)/C(C#N)=N/Nc2cccc(Cl)c2)no1 [ES1-09] |  |  |  |  |  |  |  |  | consistently block |  |  |  |  |  |  |  | 
CS(=O)(=O)N1CCN(Cc2cc3nc(-c4cccc5[nH]ncc45)nc(N4CCOCC4)c3s2)CC1 [GDC-0941, pictilisib] |  |  |  |  |  |  |  | near complete protection; also recorded: almost complete protection |  |  |  | almost completely rescue | consistently block |  |  |  | 
CCN(CC)CCCC(C)Nc1nc(C)cc(Nc2ccc3nc(C)cc(N)c3c2)n1.Cl.Cl.Cl (stereo not shown) [NSC23766, N(6)˜[2-[[4˜(diethylamino)-1-methylbutyl]amino]-6-methyl-4-pyrimidinyl]-2-methyl-4,6-quinolinediamine trihydrochloride] | significantly inhibited | completely rescued |  |  |  | significantly reduced | almost completely rescue |  | consistently block | significantly reduced |  |  |  | significantly inhibited | almost completely inhibited | strongly inhibit; also recorded: almost completely rescue | near complete protection; also recorded: almost complete protection
